Experimental data as given in patent US4443460A, “2-[4-(Diphenylmethylene)-1-piperidinyl]-acetic acids and their amides” (UCB, Societe Anonyme, priority 1980, dated 1984).
Counter-ions that a name gives are not always drawn.

What was measured:
mice [1] = test: General behaviour of mice (Irwin's test), tranquilization; format: in vivo; conditions: male mice, intraperitoneal
Protocol: The behaviour is studied by means of Irwin's test (see S. Irwin, "General philosophy and methodology of screening: a multidimensional approach"; Gordon Research Conference on Medicinal Chemistry, Aug. 3-7, 1959, at Colby Junior College, New London).
(§1) Progressive doses of the test compounds are administered intraperitoneally to groups of three male mice (body weight 18 to 22 g) and the general behaviour of the animals is observed according to known criteria. The reference compounds used are the following:
The following Table gives the doses (in mg/kg) which induce the first manifestations of tranquilization in the animals: […]

[2] = tested on: passive cutaneous anaphylaxis; test: passive cutaneous anaphylaxis test (PCA), antiallergic activity; format: in vivo; conditions: rats; for ED50: Rattus norvegicus, 0.25 h, read-out: ID 50 per os (reduction of 50% of the surface area of the colored spot)
Protocol: This activity is determined in rats by means of the passive cutaneous anaphylaxis test (PCA) (see J. Goose and A. M. J. N. Blair, Immunology,16,(1969),749-760; and U. Martin and D. Roemer, Arzneimittel-Forschung,28,(5), (1978),770-782).
Female rats are used, the sides of which have been partly shaved. Into the zone thus shaved there is injected intradermally, for passive sensitization of the animals, 0.05 ml of IGE antiovalbumin serum at a dilution such that, at the time of the PCA test, a distinct spot with a surface area of about 100 mm^2 appears at the point of injection.
72 Hours after the injection, 0.25 ml of a solution of allergen containing a coloring agent (5 mg of ovalbumin and 6 mg Evans Blue in 0.25 ml of a 0.9% aqueous solution of sodium chloride) is administered intravenously. At the point of intradermal injection, there appears a distinct blue spot, the surface of which is measured.
In order to test the activity of the compound according to the present invention, the procedure is carried out in the same manner; however:
the test compound is administered orally 72 hours after injection of the serum;
15 minutes after this administration, 0.25 ml of the solution of the allergen is injected intravenously;
30 minutes after the administration of the allergen, the surface of the blue spot is measured.
The following Table gives the immunological doses (ID 50 in μmol/kg) which bring about, on average of the total number of animals submitted to the test, a reduction of 50% of the surface area of the colored spot.

[3] = Oral toxicity LD50 in mice; conditions: mouse, in vivo
Protocol: (§2) The compounds according to the present invention have a very low toxicity. The toxicity LD50 (in mg/kg) is determined by oral administration to rats and mice. Thus, in the case of compound A, this toxicity is 1903 mg/kg in rats and 959 mg/kg in mice.

[4] = tested on: bronchospasms induced by histamine; test: Konzett-Roessler bronchospasm test, histamine-induced (antihistaminic activity); format: in vivo; conditions: guinea pigs, i.v.; for ED50: Cavia porcellus, iv, histamine-induced, read-out: dose which inhibits 50% of the induced bronchospasms, Histamine
Protocol: (§3) These activities were measured in guinea pigs by the method of H. Konzett and R. […] Anaesthetized and curarized guinea pigs are subjected to artificial ventilation. The endotracheal pressure is recorded. Repeated bronchial spasms are induced by successive and progressive intravenous injections of respectively acetylcholine, histamine and serotonin. The test compounds are also administered intravenously.

mice [5] = conditions: mouse, in vivo, ip
Protocol: as §1
Furthermore, in this test, the toxicity of the compounds according to the present invention appears to be very low. This toxicity, determined by intraperitoneal administration in mice (dose which brings about the death of two animals out of three), is given in the following Table: […]

[6] = tested on: bronchospasms induced by acetylcholine; test: Konzett-Roessler bronchospasm test, acetylcholine-induced; format: in vivo; conditions: Cavia porcellus, iv, guinea pigs, i.v., read-out: dose which inhibits 50% of the induced bronchospasms, Acetylcholine
Protocol: as §3

[7] = tested on: respiratory spasm induced by pilocarpine; test: pilocarpine dog test, broncholytic activity; format: in vivo; conditions: dogs, i.v.
Protocol: Anaesthetized and curarized dogs are subjected to artificial ventilation. The endotracheal pressure is recorded. A constant respiratory spasm is induced by the continuous intravenous perfusion of pilocarpine. The test substances are also administered intravenously.

[8] = Oral toxicity LD50 in rats; conditions: rat, in vivo
Protocol: as §2

[9] = tested on: bronchospasms induced by serotonin; test: Konzett-Roessler bronchospasm test, serotonin-induced; format: in vivo; conditions: Cavia porcellus, iv, guinea pigs, i.v., read-out: dose which inhibits 50% of the induced bronchospasms, Serotonin
Protocol: as §3

[10] = oral, allergen i.v. 15 minutes after administration

Compound	"Tranquilizing" dose (first manifestations of tranquilization) (mice [1])	ED50 [2, 10]	ED50 [4]	Toxicity (dose which brings about the death of two animals out of three) (mice [5])	ED50 [6]	ED50 [9]	also measured
OCCOCCN1CCN(C(c2ccccc2)c2ccc(Cl)cc2)CC1 (stereo not drawn) [Hydroxyzine, 1-(p-chloro-alpha-phenylbenzyl)-4-(2-hydroxyethoxyethyl)piperazine, reference compound]	27 mg/kg	–	–	–	–	–	–
O=C1Nc2ccc(Cl)cc2C(c2ccccc2)=NC1O (stereo not shown) [Oxazepam, 7-chloro-1,3-dihydro-3-hydroxy-5-phenyl-2H-1,4-benzodiazepin-2-one, reference compound]	2.6 mg/kg	–	–	–	–	–	–
Cl.O=C(O)COCCOCCN1CCC(=C(c2ccccc2)c2ccccc2)CC1 [compound A, 2-[2-[2-[4-(diphenylmethylene)-1-piperidinyl]ethoxy]ethoxy]-acetic acid hydrochloride]	130 mg/kg	133 µmol/kg	2.65 mg/kg	432 mg/kg	4.13 mg/kg	2.56 mg/kg	LD50 [3]: 959 mg/kg; antihistaminic activity 4 hours after injection ([4]; 1 mg/kg, 4 hours): retains this activity; antihistaminic activity after 90 minutes ([4]; 1 mg/kg, after 90 minutes): 100%; reduction of the intensity of the induced spasm ([7]; 320 μg/kg): 50%; broncholytic activity compared with theophylline (in words) ([7]; vs theophylline): clearly superior to that of theophylline; LD50 [8]: 1900 mg/kg
Cl.O=C(O)COCCN1CCC(=C(c2ccccc2)c2ccccc2)CC1 [compound B, 2-[2-[4-(diphenylmethylene)-1-piperidinyl]ethoxy]-acetic acid hydrochloride]	105 mg/kg	39 µmol/kg	0.037 mg/kg	233 mg/kg	> 82.5 mg/kg	0.206 mg/kg	–
Cl.NC(=O)COCCOCCN1CCC(=C(c2ccccc2)c2ccccc2)CC1 [compound C, 2-[2-[2-[4-(diphenylmethylene)-1-piperidinyl]ethoxy]ethoxy]-acetamide hydrochloride]	–	76 µmol/kg	0.031 mg/kg	258 mg/kg	0.47 mg/kg	0.009 mg/kg	–
Cl.NC(=O)COCCN1CCC(=C(c2ccccc2)c2ccc(Cl)cc2)CC1 [compound D, 2-[2-[4-[(4-chlorophenyl)phenylmethylene]-1-piperidinyl]ethoxy]-acetamide hydrochloride]	–	67.4 µmol/kg	–	126 mg/kg	–	–	–
NC(=O)COCCOCCN1CCC(=C(c2ccccc2)c2ccc(Cl)cc2)CC1 [compound E, 2-[2-[2-[4-[(4-chlorophenyl)phenylmethylene]-1-piperidinyl]ethoxy]ethoxy]-acetamide]	–	34 µmol/kg	0.348 mg/kg	128 mg/kg	> 4.29 mg/kg	0.085 mg/kg	–
NC(=O)COCCN1CCC(=C(c2ccccc2)c2ccccc2Cl)CC1 [compound F, 2-[2-[4-[(2-chlorophenyl)phenylmethylene-1-piperidinyl]ethoxy]-acetamide hydrochloride]	no sedative effect at all	66 µmol/kg	0.551 mg/kg	421 mg/kg	> 1.35 mg/kg	0.055 mg/kg	–
NC(=O)COCCN1CCC(=C(c2ccccc2)c2ccc(F)cc2)CC1 [compound G, 2-[2-[4-[(4-fluorophenyl)phenylmethylene]-1-piperidinyl]ethoxy]-acetamide]	–	5.5 µmol/kg	0.093 mg/kg	368 mg/kg	> 11.8 mg/kg	0.023 mg/kg	–
COc1ccc(C(=C2CCN(CCOCC(N)=O)CC2)c2ccccc2)cc1.Cl [compound H, 2-[2-[4-[(4-methoxyphenyl)phenylmethylene]-1-piperidinyl]ethoxy]-acetamide hydrochloride]	–	31.4 µmol/kg	0.026 mg/kg	416 mg/kg	> 41.6 mg/kg	0.18 mg/kg	–
Cl.O=C(O)COCCN1CCC(=C(c2ccccc2)c2ccc(Cl)cc2)CC1 [compound I, 2-[2-[4-[(4-chlorophenyl)phenylmethylene]-1-piperidinyl]ethoxy]-acetic acid hydrochloride]	76 mg/kg	100 µmol/kg	0.413 mg/kg	844 mg/kg	13.5 mg/kg	1.18 mg/kg	–
Cl.O=C(O)COCCOCCN1CCC(=C(c2ccccc2)c2ccc(Cl)cc2)CC1 [compound J, 2-[2-[2-[4-[(4-chlorophenyl)phenylmethylene]-1-piperidinyl]ethoxy]ethoxy]-acetic acid hydrochloride]	47 mg/kg	100 µmol/kg	0.283 mg/kg	140 mg/kg	> 46.6 mg/kg	0.796 mg/kg	–
Cl.O=C(O)COCCN1CCC(=C(c2ccccc2)c2ccccc2Cl)CC1 [compound K, 2-[2-[4-[(2-chlorophenyl)phenylmethylene]-1-piperidinyl]ethoxy]-acetic acid hydrochloride]	126 mg/kg	100 µmol/kg	0.104 mg/kg	422 mg/kg	39.5 mg/kg	0.43 mg/kg	–
O=C(O)COCCN1CCC(=C(c2ccccc2)c2ccc(F)cc2)CC1 [compound L, 2-[2-[4-[(4-fluorophenyl)phenylmethylene]-1-piperidinyl]ethoxy]-acetic acid]	110 mg/kg	34 µmol/kg	0.058 mg/kg	369 mg/kg	> 11.8 mg/kg	0.198 mg/kg	–
COc1ccc(C(=C2CCN(CCOCC(=O)O)CC2)c2ccccc2)cc1.Cl [compound M, 2-[2-[4-[(4-methoxyphenyl)phenylmethylene]-1-piperidinyl]ethoxy]-acetic acid hydrochloride]	125 mg/kg	208 µmol/kg	0.181 mg/kg	418 mg/kg	> 41.8 mg/kg	0.893 mg/kg	–
Cl.O=C(COCCOCCN1CCC(=C(c2ccccc2)c2ccccc2)CC1)Nc1ccccc1 [compound N, 2-[2-[2-[4-(diphenylmethylene)-1-piperidinyl]ethoxy]ethoxy]-N-phenylacetamide hydrochloride]	–	15.2 µmol/kg	0.192 mg/kg	–	1.35 mg/kg	0.086 mg/kg	–
O=C(O)c1cc(=O)c2c(OCC(O)COc3cccc4oc(C(=O)O)cc(=O)c34)cccc2o1 [sodium cromoglycate, reference compound]	–	–	–	–	–	–	ID 50 per os (reduction of 50% of the surface area of the colored spot) [2, 10]: inactive; activity when administered per os (in words) ([2]; per os): inactive
Cn1c(=O)c2[nH]cnc2n(C)c1=O [theophylline, reference compound]	–	–	–	–	–	–	reduction of the intensity of the induced spasm ([7]; 3200 μg/kg): 35%
